Results: patent publication US20170190671A1, “BIS(ARYL)CATECHOL DERIVATIVES AS HERBICIDES” (E I DU PONT DE NEMOURS AND COMPANY, priority 2014, published 2017)

How the values were obtained:
Assay type in all cases: in vivo
[1] = test system: ragweed (common ragweed, Ambrosia elatior); assay: Test A preemergence; details: Ambrosia artemisiifolia, pre-emergence, 240 h, 0 to 100 scale (0 no effect, 100 complete control), read-out: Ragweed plant response rating
Outline: (§1)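 Pre- and postemergence greenhouse screen. Soil: loam + sand. Spray carrier: solvent mixture, non-phytotoxic, with surfactant. Post timing at 1–2 leaves, height 2–10 cm. Readout: visual injury on a 0–100 scale roughly 10 days after application, untreated plants as reference.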

[2] = test system: giant foxtail (Setaria faberii); assay: Test A preemergence; details: Setaria faberi, pre-emergence, 240 h, 0 to 100 scale (0 no effect, 100 complete control), read-out: Foxtail, Giant plant response rating
Outline: as §1

[3] = test system: Italian ryegrass (Lolium multiflorum); assay: Test A preemergence; details: Lolium multiflorum, pre-emergence, 240 h, 0 to 100 scale (0 no effect, 100 complete control), read-out: Ryegrass, Italian plant response rating
Outline: as §1

[4] = test system: kochia (Kochia scoparia); assay: Test A preemergence; details: Bassia scoparia, pre-emergence, 240 h, 0 to 100 scale (0 no effect, 100 complete control), read-out: Kochia plant response rating
Outline: as §1

[5] = test system: barnyardgrass (Echinochloa crus-galli); assay: Test A preemergence; details: Echinochloa crus-galli, pre-emergence, 240 h, 0 to 100 scale (0 no effect, 100 complete control), read-out: Barnyardgrass plant response rating
Outline: as §1

[6] = test system: pigweed (Amaranthus retroflexus); assay: Test A preemergence; details: Amaranthus retroflexus, pre-emergence, 240 h, 0 to 100 scale (0 no effect, 100 complete control), read-out: Pigweed plant response rating
Outline: as §1

[7] = test system: barnyardgrass (Echinochloa crus-galli); assay: Test B flooded paddy; details: Echinochloa crus-galli, 336 h; 250 g ai/ha, Flood, 13 to 15 days, scale 0 (no effect) to 100 (complete control); read-out: Plant response rating, Barnyardgrass
Outline: (§2)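 Compound was added to standing water 3 cm above soil, flood maintained, and plants held in a greenhouse before visual scoring against controls at 13 to 15 days.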

[8] = test system: ducksalad (Heteranthera limosa); assay: Test B flooded paddy; details: Heteranthera limosa, 336 h; 250 g ai/ha, Flood, 13 to 15 days, scale 0 (no effect) to 100 (complete control); read-out: Plant response rating, Ducksalad
Outline: as §2

[9] = test system: rice (Oryza sativa); assay: Test B flooded paddy; details: Oryza sativa, 336 h; 250 g ai/ha, Flood, 13 to 15 days, scale 0 (no effect) to 100 (complete control); read-out: Plant response rating, Rice
Outline: as §2

[10] = test system: sedge, umbrella (small-flower umbrella sedge, Cyperus difformis); assay: Test B flooded paddy; details: Cyperus difformis, 336 h; 250 g ai/ha, Flood, 13 to 15 days, scale 0 (no effect) to 100 (complete control); read-out: Plant response rating, Sedge, Umbrella
Outline: as §2

[11] = test system: wheat (Triticum aestivum); assay: Test A postemergence; details: Triticum aestivum, post-emergence, 240 h, 0 to 100 scale, read-out: Plant response rating, Wheat
Outline: as §1

[12] = test system: corn (Zea mays); assay: Test A postemergence; details: Zea mays, post-emergence, 240 h, 0 to 100 scale
Outline: as §1

[13] = test system: blackgrass (Alopecurus myosuroides); assay: Test A postemergence; details: Alopecurus myosuroides, post-emergence, 240 h, 0 to 100 scale, read-out: Plant response rating, Blackgrass
Outline: as §1

[14] = test system: ragweed (common ragweed, Ambrosia elatior); assay: Test A postemergence; details: Ambrosia artemisiifolia, post-emergence, 240 h, 0 to 100 scale, read-out: Plant response rating, Ragweed
Outline: as §1

[15] = test system: giant foxtail (Setaria faberii); assay: Test A postemergence; details: Setaria faberi, post-emergence, 240 h, 0 to 100 scale, read-out: Plant response rating, Foxtail, Giant
Outline: as §1

[16] = test system: Italian ryegrass (Lolium multiflorum); assay: Test A postemergence; details: Lolium multiflorum, post-emergence, 240 h, 0 to 100 scale, read-out: Plant response rating, Ryegrass, Italian
Outline: as §1

[17] = test system: kochia (Kochia scoparia); assay: Test A postemergence; details: Bassia scoparia, post-emergence, 240 h, 0 to 100 scale, read-out: Plant response rating, Kochia
Outline: as §1

[18] = test system: barnyardgrass (Echinochloa crus-galli); assay: Test A postemergence; details: Echinochloa crus-galli, post-emergence, 240 h, 0 to 100 scale, read-out: Plant response rating, Barnyardgrass
Outline: as §1

[19] = test system: pigweed (Amaranthus retroflexus); assay: Test A postemergence; details: Amaranthus retroflexus, post-emergence, 240 h, 0 to 100 scale, read-out: Plant response rating, Pigweed
Outline: as §1

[20] = test system: galium (catchweed bedstraw, Galium aparine); assay: Test A postemergence; details: Galium, post-emergence, 240 h, 0 to 100 scale, read-out: Plant response rating, Galium
Outline: as §1

[21] = test system: giant foxtail (Setaria faberii); assay: Test C postemergence; details: Setaria faberi, post-emergence, 336 h, Postemergence, scale 0 to 100, read-out: Plant response rating, Foxtail, Giant
[22] = test system: morningglory (Ipomoea coccinea); assay: Test C postemergence; details: Ipomoea, post-emergence, 336 h, Postemergence, scale 0 to 100, read-out: Plant response rating, Morningglory
[23] = test system: galium (catchweed bedstraw, Galium aparine); assay: Test C postemergence; details: Galium, post-emergence, 336 h, Postemergence, scale 0 to 100, read-out: Plant response rating, Galium

Q: What does the source list for `N#Cc1cccc(Oc2ncc(C(F)(F)F)cn2)c1Oc1ncc(Cl)cn1` [Compound 39, 2-[(5-chloro-2-pyrimidinyl)oxy]-3-[[5-(trifluoromethyl)-2-pyrimidinyl]oxy]-benzonitrile]?
A: pest or weed control at 31 g/ha ([1]; 31 g ai/ha): 0%; pest or weed control at 125 g/ha ([1]; 125 g ai/ha): 40%; pest or weed control at 31 g/ha ([2]; 31 g ai/ha): 100%; pest or weed control at 125 g/ha ([2]; 125 g ai/ha): 100%; pest or weed control at 31 g/ha ([3]; 31 g ai/ha): 10%; pest or weed control at 125 g/ha ([3]; 125 g ai/ha): 90%; pest or weed control at 31 g/ha ([4]; 31 g ai/ha): 90%; pest or weed control at 125 g/ha ([4]; 125 g ai/ha): 100%; pest or weed control at 31 g/ha ([5]; 31 g ai/ha): 80%; pest or weed control at 125 g/ha ([5]; 125 g ai/ha): 100%; pest or weed control at 31 g/ha ([6]; 31 g ai/ha): 100%; pest or weed control at 125 g/ha ([6]; 125 g ai/ha): 100%; pest or weed control at 250 g/ha [7]: 50%; pest or weed control at 250 g/ha [8]: 100%; plant injury at 250 g/ha [9]: 50%; pest or weed control at 250 g/ha [10]: 100%; plant injury at 31 g/ha ([11]; 31 g ai/ha): 10%; plant injury at 125 g/ha ([11]; 125 g ai/ha): 90%; Corn plant response rating (crop injury, 0 = no effect, 100 = complete kill) at 31 g/ha ([12]; 31 g ai/ha): 60%; Corn plant response rating (crop injury, 0 = no effect, 100 = complete kill) at 125 g/ha ([12]; 125 g ai/ha): 100%; pest or weed control at 31 g/ha ([13]; 31 g ai/ha): 80%; pest or weed control at 125 g/ha ([13]; 125 g ai/ha): 100%; pest or weed control at 31 g/ha ([14]; 31 g ai/ha): 40%; pest or weed control at 125 g/ha ([14]; 125 g ai/ha): 60%; pest or weed control at 31 g/ha ([15]; 31 g ai/ha): 100%; pest or weed control at 125 g/ha ([15]; 125 g ai/ha): 100%; pest or weed control at 31 g/ha ([16]; 31 g ai/ha): 40%; pest or weed control at 125 g/ha ([16]; 125 g ai/ha): 90%; pest or weed control at 31 g/ha ([17]; 31 g ai/ha): 100%; pest or weed control at 125 g/ha ([17]; 125 g ai/ha): 100%; pest or weed control at 31 g/ha ([18]; 31 g ai/ha): 90%; pest or weed control at 125 g/ha ([18]; 125 g ai/ha): 90%; pest or weed control at 31 g/ha ([19]; 31 g ai/ha): 100%; pest or weed control at 125 g/ha ([19]; 125 g ai/ha): 100%; pest or weed control at 31 g/ha ([20]; 31 g ai/ha): 100%; pest or weed control at 125 g/ha ([20]; 125 g ai/ha): 100%; pest or weed control at 16 g/ha ([21]; 16 g ai/ha): 10%; pest or weed control at 31 g/ha ([21]; 31 g ai/ha): 10%; pest or weed control at 62 g/ha ([21]; 62 g ai/ha): 10%; pest or weed control at 125 g/ha ([21]; 125 g ai/ha): 20%; pest or weed control at 31 g/ha ([22]; 31 g ai/ha): 75%; pest or weed control at 62 g/ha ([22]; 62 g ai/ha): 90%; pest or weed control at 125 g/ha ([22]; 125 g ai/ha): 85%; pest or weed control at 16 g/ha ([23]; 16 g ai/ha): 60%; pest or weed control at 31 g/ha ([23]; 31 g ai/ha): 80%; pest or weed control at 62 g/ha ([23]; 62 g ai/ha): 80%; pest or weed control at 125 g/ha ([23]; 125 g ai/ha): 90%
